Consider one compound from patent US20250025439A1, “DERIVATIVES OF NIFUROXAZIDE FOR USE IN THE TREATMENT OF MITOCHONDRIAL DISORDERS AND NEURODEGENERATIVE DISEASES” (priority 2021, published 2025).

The IC50 is the concentration needed to halve the response being measured.

Assay type in all cases: cell-based, human
Experiment [1] has as its system control and patient fibroblasts. The experiment in a line: Toxicity assay (Trypan blue cell counting after 72 h). The conditions noted are these: Homo sapiens, Fibroblast, control and patient fibroblasts, living cells vs DMSO, read-out: calculated IC50 (toxicity). The method, then: Skin punches were obtained from patients after informed consent. Primary fibroblast cultures were established using standard procedures in RPMI supplemented with 10% Fetal Bovine Serum (FBS), 45 μg/mL uridine and 275 μg/mL sodium pyruvate (Bannwarth et al., 2014). Primary fibroblast cultures were maintained in Dulbecco's Modified Eagle Medium supplemented with 10% FBS, penicillin (100 U/mL) and streptomycin (0.1 mg/mL) at 37° C. in a humidified incubator with 5% CO2. Cells were plated in six well plates in glucose medium (DMEM, 10% FBS, penicillin (100 U/mL) and streptomycin (0.1 mg/mL)) and incubated at 37° C. in a humidified incubator with 5% CO2. After 24h, one well was treated with DMSO, the other wells were treated with rising concentrations of […] or NFO. 72 h after the treatment, the cells were trypsinized, stained with Trypan blue and counted with a Malassez cell. The ratio of each concentration compared to the DMSO control has been plotted and the IC50 has been calculated using the nonlinear regression on the software GraphpadPrism 8.

For the next experiment, the system named is OPA1 and Mitofilin. Nature of the experiment: In situ proximity ligation assay OPA1/IMMT. The settings on record: patient fibroblasts, NFX 5 μM. The protocol:
Fibroblasts were seeded in 16-well Lab-Tek chambers slides (Nunc). For mitochondrial staining, cells were incubated in a 100 nM solution of MitoTracker Red CMXRos (Invitrogen) for 15 min. Cells were fixed with PFA 4% for 20 min at 37° C. and permeabilised with 2% Triton X-100 for 10 min. Then coverslips were saturated with 5% BSA for 45 min at RT. All antibodies were diluted with PBS-BSA 5%. Fibroblasts were incubated in the presence of convenient couple of primary antibodies for 1 h at RT. After PBS washes, incubation with appropriate PLA probe (PLA probe anti rabbit MINUS, PLA probe anti mouse PLUS), hybridization, ligation and amplification were done using the DuoLink In Situ Detection Reagents Green (Olink Biosciences) following manufacturer's instructions. Finally, the samples were mounted on glass slides using Prolong Gold Antifade Reagent (Molecular Probes). Images were captured with a ZEISS LSM 880 confocal laser-scanning microscope and analyzed using Huygens Essential Software™ (Scientific Volume Imaging). Data are represented as mean±SEM. Negative control experiments (with one antibody omitted) were performed in parallel and checked to result in the absence of PLA signal (FIG. 1).

The subject of the next experiment is patient motor neurons. Nature of the experiment: Electron microscopy of mitochondrial morphology in iPSC-derived motor neurons. The settings on record: NFX 0.5 μM, 72 h. The method, then:
Cells were seeded on 24 wells/plate, fixed with 1.6% glutaraldehyde in 0.1 M cacodylate buffer (pH 7.4) for 2 hours, rinsed and postfixed in 1% osmium tetroxide and 1% potassium ferrocyanide in 0.1 M cacodylate buffer before to processed for ultrastructure as previously described (Bannwarth et al., Brain, 2014, 137, 2329-2345). The protocol for contrasting sections was slightly modified, using a 5% Lanthanide salt solution (a mixture of Gadolinium acetate and Samarium acetate) for 7 minutes instead of uranium acetate. The cells were examined under a JEOL 1400 transmission electron microscope. The ultrastructure of mitochondria was classified in three categories. Normal: the mitochondria have numerous, parallel and well organized cristae. Intermediary: the mitochondria have less cristae, they show few round or swollen cristae or have a mild disorganisation. Abnormal: the mitochondria have swollen, disorganized or no cristae. More than 100 mitochondria were classified per condition. iPSC clones were generated from human fibroblasts as previously described (Genin et al., Acta Neuropathol., 2019, 138, 123-145). Motor neurons were differentiated from iPSC using previously described and validated protocols with some modifications. Briefly, iPSC clones were detached by Accutase treatment to form small clusters. […]

A further experiment concerns STAT3. The experiment in a line: Western blot of STAT3 expression after treatment. The settings on record: patient and control fibroblasts, NFX 1 or 5 μM, 72 h. The protocol:
The concentration of proteins was determined using the Pierce BCA assay kit (Thermo Fisher Scientific). 20 μg of total protein extracts were separated on acrylamide-SDS gels and transferred to PVDF membranes (Millipore). Signals were detected using a chemoluminescence system (Immobilon Western HRP Chemilumiscent substrates, Millipore). ImageJ was used to quantify protein signals. Nifuroxazide (46494-100MG Sigma) was resuspended in DMSO at 50 mM and stocked at −20° C. For each treatment, the Nifuroxazide was diluted in complete medium (Dulbecco's Modified Eagle Medium supplemented with 10% FBS, penicillin (100 U/mL) and streptomycin (0.1 mg/mL)) at the desired concentration. The cell medium was discarded and replaced by the medium with Nifuroxazide. 72 h hours after treatment, the cells were analysed.
Background: A western blot detects proteins with antibodies after separation by electrophoresis.

With `O=C(N/N=C/c1ccc([N+](=O)[O-])o1)c1ccc(O)cc1` [NFX, (E)-4-hydroxy-N′-((5-nitrofuran-2-yl)methylene)benzohydrazide], the half-inhibitory concentration (IC50) in experiment [1] is ~10 µM. Also, the “number of PLA spots OPA1/Mitofilin” value in the experiment on OPA1 and Mitofilin is listed as “significant increase”. Also, in the experiment on patient motor neurons, the “mitochondrial morphology and cristae shape (EM)” value is on record as “improved”. Besides, in the experiment on STAT3, the STAT3 protein level result is “dose-dependent decrease” and the pSTAT3Y705 protein level entry was “dose-dependent decrease”.
